Earlier results on one compound are cited in paper PMC3263412 (International Journal of Nanomedicine, 2012).

As for `CCCCCCCCCCCCCCCC[N+](C)(C)C` [CTAB, Cetyltrimethyl ammonium bromide], the cytotoxicity result is “marked cytotoxicity”.
